Assay results taken from patent US12344595B2, “2-amino-n-phenyl-nicotinamides as NAV1.8 inhibitors” (Merck Sharp & Dohme LLC, priority 2018, dated 2025).

Each compound was assayed against human Nav1.8 (Homo sapiens (Human), UniProt Q9Y5Y9) (assay: Nav1.8 Qube automated patch-clamp assay). Conditions: Nav1.8 Qube Assay; human Nav1.8 channels stably expressed in HEK 293 cells.
Format: cell-based
Procedure: Qube® Assay Experimental Procedure
Compounds were tested on human Nav1.8 and Nav1.5 channels stably expressed in human embryo kidney (HEK) 293 cells. Sodium current measurements on Qube® were conducted as follows: automated 384-well patch-clamp assays on the Qube® platform (Sophion Biosciences) were used to measure the inhibition of sodium flow through human Nav1.8 and Nav1.5 channels. Whole-cell voltage-clamp recordings were performed in QChips® (Sophion Biosciences) at room temperature. Nav1.8 current measurements on Qube® were obtained as follows: Nav1.8 currents were elicited with a 10 second 1 Hertz (Hz) pulse train from a holding potential of −90 millivolts (mV), delivered to the cells once per minute in the control condition (DMSO only) and after compound addition. The 1 hertz pulse train stimulation consisted of ten test pulses to 10 millivolt (mV) for 20 milliseconds (ms), each of which was followed by a 980 millisecond repolarization to −67 millivolts. At the end of the 10 second pulse train stimulation, a 5 second hyperpolarization step to −100 millivolt (mV) was used to recover Nav1.8 from fast inactivation. The peak currents elicited by the 1st and 10th test pulses were used to determine IC50 values for resting inhibition and inactivated state inhibition. Nav1.5 current measurements on Qube® were obtained as follows: Nav1.5 currents were elicited with a 20 second 3 Hertz pulse train in the control condition (DMSO only) and after compound addition. The pulse train consisted of sixty 20 millisecond test pulses to 0 millivolt from a holding potential of −80 millivolt (mV). The average peak currents elicited by the last 3 test pulses were used to determine IC50 values for Nav1.5 inhibition.
The following buffers were used for the Qube® recordings: External buffer for Nav1.8 Qube® recording: 150 NaCl, 2 CaCl2, 5 KCl, 1 Mg Cl2, 10 HEPES, 12 Dextrose; External buffer for Qube® Nav1.5 recording: 120 N-Methyl-D-Glucamine, 40 NaCl, 1 KCl, 2.7 CaCl2, 5 HEPES, 0.5 MgCl2; and Internal buffer for Qube® recording: 120 CsF, 30 CsCl, 10 EGTA, 5 HEPES, 5 NaF, 2 MgCl2.
For all Qube® experiments offline analysis was used to determine percent inhibition as a function of drug concentration. IC50 values were determined by fitting to the Hill equation.

human Nav1.8, sequence (Q9Y5Y9 whole entry): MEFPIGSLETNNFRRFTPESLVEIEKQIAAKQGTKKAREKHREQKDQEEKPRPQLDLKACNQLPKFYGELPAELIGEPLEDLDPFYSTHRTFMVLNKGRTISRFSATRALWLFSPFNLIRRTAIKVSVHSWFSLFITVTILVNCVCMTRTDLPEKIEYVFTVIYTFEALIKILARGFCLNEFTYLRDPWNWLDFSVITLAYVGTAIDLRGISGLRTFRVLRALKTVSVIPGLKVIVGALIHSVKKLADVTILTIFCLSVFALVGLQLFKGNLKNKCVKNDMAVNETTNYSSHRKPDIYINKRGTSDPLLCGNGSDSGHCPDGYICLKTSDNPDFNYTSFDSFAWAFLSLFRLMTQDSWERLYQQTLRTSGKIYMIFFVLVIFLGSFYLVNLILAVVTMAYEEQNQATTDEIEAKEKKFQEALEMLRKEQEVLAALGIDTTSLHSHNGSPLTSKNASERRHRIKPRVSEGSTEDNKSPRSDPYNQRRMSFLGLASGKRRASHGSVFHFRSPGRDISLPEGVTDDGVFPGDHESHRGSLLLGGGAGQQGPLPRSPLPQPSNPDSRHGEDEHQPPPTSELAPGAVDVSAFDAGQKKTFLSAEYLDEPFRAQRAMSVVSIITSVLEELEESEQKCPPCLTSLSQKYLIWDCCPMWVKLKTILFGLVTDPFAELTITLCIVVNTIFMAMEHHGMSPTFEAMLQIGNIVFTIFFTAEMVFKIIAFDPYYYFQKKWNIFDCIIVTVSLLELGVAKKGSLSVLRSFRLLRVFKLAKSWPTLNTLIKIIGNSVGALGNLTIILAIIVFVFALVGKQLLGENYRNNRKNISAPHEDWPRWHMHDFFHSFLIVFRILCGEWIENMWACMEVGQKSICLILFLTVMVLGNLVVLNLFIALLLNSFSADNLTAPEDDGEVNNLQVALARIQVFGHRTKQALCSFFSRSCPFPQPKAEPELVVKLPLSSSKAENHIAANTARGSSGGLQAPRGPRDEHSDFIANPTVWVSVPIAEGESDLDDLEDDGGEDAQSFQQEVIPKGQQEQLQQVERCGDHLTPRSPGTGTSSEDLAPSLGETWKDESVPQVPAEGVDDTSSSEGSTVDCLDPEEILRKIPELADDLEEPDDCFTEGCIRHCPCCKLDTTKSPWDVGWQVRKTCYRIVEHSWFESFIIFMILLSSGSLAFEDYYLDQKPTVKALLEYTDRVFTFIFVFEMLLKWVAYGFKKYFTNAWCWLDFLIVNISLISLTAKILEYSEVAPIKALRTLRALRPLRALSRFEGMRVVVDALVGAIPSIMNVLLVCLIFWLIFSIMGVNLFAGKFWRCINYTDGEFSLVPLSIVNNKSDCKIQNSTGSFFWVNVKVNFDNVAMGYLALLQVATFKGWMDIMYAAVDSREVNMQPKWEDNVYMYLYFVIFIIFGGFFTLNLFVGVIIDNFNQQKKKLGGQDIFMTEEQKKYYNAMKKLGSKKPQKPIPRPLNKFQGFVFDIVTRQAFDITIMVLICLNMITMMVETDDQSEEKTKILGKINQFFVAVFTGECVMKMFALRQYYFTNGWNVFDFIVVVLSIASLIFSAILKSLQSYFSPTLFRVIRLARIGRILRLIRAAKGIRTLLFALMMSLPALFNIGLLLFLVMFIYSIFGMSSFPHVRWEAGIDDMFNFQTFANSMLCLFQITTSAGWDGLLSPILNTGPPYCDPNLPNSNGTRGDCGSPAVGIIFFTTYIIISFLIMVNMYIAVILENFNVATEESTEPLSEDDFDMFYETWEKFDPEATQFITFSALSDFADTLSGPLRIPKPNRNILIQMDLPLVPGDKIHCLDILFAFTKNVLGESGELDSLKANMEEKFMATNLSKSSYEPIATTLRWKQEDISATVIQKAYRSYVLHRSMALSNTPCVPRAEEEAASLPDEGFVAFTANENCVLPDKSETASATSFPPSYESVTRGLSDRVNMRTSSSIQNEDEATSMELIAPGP

IC50 [nM]	Structure (SMILES)
575	NS(=O)(=O)c1cccc(NC(=O)c2cc(C(F)(F)F)cnc2N2CC3CCC(C2)O3)c1 [Example 57, 2-(8-oxa-3-azabicyclo[3.2.1]octan-3-yl)-N-(3-sulfamoyl-phenyl)-5-(trifluoro-methyl)pyridine-3-carboxamide]
687	O=C(Nc1cccc(S(=O)(=O)Nc2ccncn2)c1)c1cc(C(F)(F)F)cnc1N1CCCCCC1 [Example 151, 2-(azepan-1-yl)-3-((3-(N-(pyrimidin-4-yl)sulfamoyl)phenyl)carbamoyl)-5-(trifluoromethyl)pyridin-1-ium]
9.5	NS(=O)(=O)c1cccc(NC(=O)c2cc(C(F)(F)F)cnc2N2CCCCCC2)c1 [Example 44, 2-(azepan-1-yl)-N-(3-sulfamoylphenyl)-5-(trifluoromethyl)-pyridine-3-carboxamide]
3650	CC(C)CC1CCCCCN1c1ncc(C(F)(F)F)cc1C(=O)Nc1cccc(S(N)(=O)=O)c1 (stereo not shown) [Example 68, 2-(2-isobutylazepan-1-yl)-N-(3-sulfamoyl-phenyl)-5-(trifluoro-methyl)pyridine-3-carboxamide]
2980	COC(=O)C1CCCCN(c2ncc(C(F)(F)F)cc2C(=O)Nc2cccc(S(N)(=O)=O)c2)C1 (stereo not shown) [Example 67, methyl 1-[3-[(3-sulfamoylphenyl)carbamoyl]-5-(trifluoro-methyl)-2-pyridyl]-azepane-3-carboxylate]
2280	O=C(Nc1ccc2c(c1)S(=O)(=O)C=C2)c1cc(C(F)(F)F)cnc1N1CCCCCC1 [Example 118, 2-(azepan-1-yl)-N-(1,1-dioxobenzothiophen-6-yl)-5-(trifluoromethyl)-pyridine-3-carboxamide]
63	CC12CCN(c3ncc(C(F)(F)F)cc3C(=O)Nc3cccc(S(N)(=O)=O)c3)CC1C2(F)F (single isomer, unassigned) [Example 129, 2-[(1S,6S or 1R,6R)-7,7-difluoro-6-methyl-3-azabicyclo[4.1.0]heptan-3-yl]-N-(3-sulfamoyl-phenyl)-5-(trifluoro-methyl)pyridine-3-carboxamide]
2.5	NS(=O)(=O)c1cccc(NC(=O)c2cc(OC(F)(F)F)cnc2N2CCCC(F)(F)CC2)c1 [Example 39, 2-(4,4-difluoroazepan-1-yl)-N-(3-sulfamoylphenyl)-5-(trifluoromethoxy)nicotinamide]
12	Cc1cc(C(=O)Nc2cccc(S(N)(=O)=O)c2)c(N2CCCCCC2)nc1C [Example 30, 2-(azepan-1-yl)-5,6-dimethyl-N-(3-sulfamoylphenyl) pyridine-3-carboxamide]
31	NS(=O)(=O)c1cccc(NC(=O)c2cc(F)c(Cl)nc2N2CCCCCC2)c1 [Example 92, 2-(azepan-1-yl)-6-chloro-5-fluoro-N-(3-sulfamoylphenyl)-pyridine-3-carboxamide]
11	CC1(C)CCCN(c2ncc(C(F)(F)F)cc2C(=O)Nc2cccc(S(N)(=O)=O)c2)CC1 [Example 80, 2-(4,4-dimethylazepan-1-yl)-N-(3-sulfamoyl-phenyl)-5-(trifluoro-methyl)nicotinamide]
337	NS(=O)(=O)c1ccc(O)c(NC(=O)c2cc(C(F)(F)F)cnc2N2CCCCCC2)c1 [Example 25, 2-(azepan-1-yl)-N-(2-hydroxy-5-sulfamoyl-phenyl)-5-(trifluoro-methyl)pyridine-3-carboxamide]
304	CC1(O)CCCN(c2ncc(C(F)(F)F)cc2C(=O)Nc2cccc(S(N)(=O)=O)c2)CC1 (stereo not shown) [Example 53, 2-(4-hydroxy-4-methyl-azepan-1-yl)-N-(3-sulfamoylphenyl)-5-(trifluoromethyl)-pyridine-3-carboxamide]
37	NS(=O)(=O)c1cccc(NC(=O)c2cc(C(F)(F)F)cnc2N2CC3CC(F)(F)C3C2)c1 (single isomer, unassigned) [Example 135, 2-[(1S,5R or 1R,5S)-6,6-difluoro-3-azabicyclo[3.2.0]heptan-3-yl]-N-(3-sulfamoyl-phenyl)-5-(trifluoro-methyl)pyridine-3-carboxamide]

Second part, the compound before the results:

Structure (SMILES)	IC50 [nM]
Cc1nc(N2CCCCCC2)c(C(=O)Nc2cccc(S(C)(=O)=O)c2)c(C)c1Cl [Example 7, 2-(azepan-1-yl)-5-chloro-4,6-dimethyl-N-(3-methylsulfonyl-phenyl)pyridine-3-carboxamide]	3.5
O=C(Nc1cccc(S(=O)(=O)C2CCCC2)c1)c1cc(C(F)(F)F)cnc1N1CCCCCC1 [Example 120, 2-(azepan-1-yl)-N-(3-cyclopentylsulfonylphenyl)-5-(trifluoro-methyl)-pyridine-3-carboxamide]	3020
CS(=O)(=O)c1cccc(NC(=O)c2cc(Cl)cnc2N2CCCC(F)(F)CC2)c1 [Example 173, 5-chloro-2-(4,4-difluoroazepan-1-yl)-N-(3-(methylsulfonyl)phenyl)nicotinamide]	7.8
CC(C)Cc1cnc(N2CCCCC2)c(C(=O)Nc2cccc(S(N)(=O)=O)c2)c1 [Example 153, 5-isobutyl-2-(piperidin-1-yl)-N-(3-sulfamoylphenyl)nicotinamide]	2240
C[C@@H]1CN(c2ncc(C(F)(F)F)cc2C(=O)Nc2ccc3c(c2)S(=O)(=O)NC3)C[C@H](C)C1(F)F [Example 111, 2-[(3S,5R)-4,4-difluoro-3,5-dimethyl-1-piperidyl]-N-(1,1-dioxo-2,3-dihydro-1,2-benzothiazol-6-yl)-5-(trifluoromethyl) pyridine-3-carboxamide]	63
NS(=O)(=O)c1cccc(NC(=O)c2cc(C(F)(F)F)cnc2N2CCC(F)C2)c1 (stereo not shown) [Example 62, 2-(3-fluoropyrrolidin-1-yl)-N-(3-sulfamoyl-phenyl)-5-(trifluoro-methyl)pyridine-3-carboxamide]	1830
CS(=O)(=O)c1cccc(NC(=O)c2cc(C(F)(F)F)cnc2N2C[C@H]3CCCC[C@H]3C2)c1 [Example 97, 2-[(3aS,7aR)-1,3,3a,4,5,6,7,7a-octahydroisoindol-2-yl]-N-(3-methyl-sulfonylphenyl)-5-(trifluoromethyl) pyridine-3-carboxamide]	49
C[C@@H]1CN(c2ncc(C(F)(F)F)cc2C(=O)Nc2cccc(S(N)(=O)=O)c2)C[C@H](C)C1(F)F [Example 125, 2-[(3S,5R)-4,4-difluoro-3,5-dimethyl-1-piperidyl]-N-(3-sulfamoylphenyl)-5-(trifluoromethyl)-pyridine-3-carboxamide]	2.4
C=CCCc1cnc(N2CCCC(F)(F)CC2)c(C(=O)Nc2cccc(S(N)(=O)=O)c2)c1 [Example 161, 5-(but-3-en-1-yl)-2-(4,4-difluoroazepan-1-yl)-N-(3-sulfamoylphenyl)nicotinamide]	3.2
COc1nc(N2CCCCCC2)c(C(=O)Nc2cccc(S(N)(=O)=O)c2)cc1C [Example 155, 2-(azepan-1-yl)-6-methoxy-5-methyl-N-(3-sulfamoylphenyl)nicotinamide]	32
CS(=O)(=O)c1cccc(NC(=O)c2cc(C(F)(F)F)cnc2N2CCC3(CC3)C(F)(F)C2)c1 [Example 101, 2-(8,8-difluoro-6-azaspiro[2.5]octan-6-yl)-N-(3-methyl-sulfonylphenyl)-5-(trifluoromethyl) pyridine-3-carboxamide]	260
NS(=O)(=O)c1cccc(NC(=O)c2cc(C(F)(F)F)cnc2N2CCNC(C(F)(F)F)C2)c1 (stereo not shown) [Example 143, N-(3-sulfamoylphenyl)-5-(trifluoromethyl)-2-[3-(trifluoromethyl)-piperazin-1-yl]pyridine-3-carboxamide]	2180
NS(=O)(=O)c1cccc(NC(=O)c2cc(C(F)(F)F)cnc2N2CCCC2)c1 [Example 63, 2-pyrrolidin-1-yl-N-(3-sulfamoylphenyl)-5-(trifluoromethyl)pyridine-3-carboxamide]	2000
NC(=O)c1cccc(NC(=O)c2cc(C(F)(F)F)cnc2N2CC3CCC(F)(F)C3C2)c1 (stereo not shown) [Example 108, N-(3-carbamoylphenyl)-2-(4,4-difluoro-1,3,3a,- 5,6,6a-hexahydrocyclo-penta[c]pyrrol-2-yl)-5-(trifluoromethyl)-pyridine-3-carboxamide]	148
NC(=O)c1cccc(NC(=O)c2cc(C(F)(F)F)cnc2N2CCCC(F)(F)CC2)c1 [Example 106, N-(3-carbamoylphenyl)-2-(4,4-difluoroazepan-1-yl)-5-(trifluoro-methyl)pyridine-3-carboxamide]	32
Cc1nc(N2CCCCCC2)c(C(=O)Nc2cccc(S(N)(=O)=O)c2)c(C)c1Cl [Example 2, 2-(azepan-1-yl)-5-chloro-4,6-dimethyl-N-(3-sulfamoylphenyl)nicotinamide]	0.7
NS(=O)(=O)c1cccc(NC(=O)c2cc(C(F)(F)F)cnc2N2CCOCC2)c1 [Example 69, 2-morpholino-N-(3-sulfamoylphenyl)-5-(trifluoromethyl) pyridine-3-carboxamide]	4060
